Measurements as given in patent US20220281930A1, “COMPOSITIONS AND METHODS FOR THE TREATMENT OF PATHOLOGICAL PAIN AND ITCH” (DUKE UNIVERSITY, priority 2019, published 2022).

Key:
Format in all cases: cell-based
[1] = system: KCC2 mRNA; assay: KCC2 mRNA RT-qPCR in rat primary cortical neurons; details: primary rat cortical neurons; 0.1, 0.2, 0.5 μM KP
Description: (§1) Total RNA was isolated from cultured cell samples using Directzol RNA miniprep kit (ZymoResearch). The protocol includes DNAse digestion to exclude genomic DNA from preparations. Total RNA (1 μg) was reverse transcribed using oligo primers (dT) and SuperScriptIII first-strand synthesis kit (Invitrogen). Gene expression was assessed by quantitative real-time PCR using 2×SYBR Green Master Mix (Qiagen) and a three-step cycling protocol (anneal at 60° C./elongate at 72° C., denature at 95° C.). Specificity of primers was verified by dissociation/melting curve for the amplicons when using SYBR Green as a detector. All reactions were performed in triplicates. The amount of target messenger RNA (mRNA) in the experimental group relative to that in the control was determined from the resulting fluorescence and threshold values (Ct) using the ΔΔCt method. βIII-tubulin was used as housekeeping gene. oligodT-initiated reverse transcription of 1 μg total RNA, DNA-se treated, was subjected to RT-qPCR using primers specific for KCC2 for rat and KCC2 for human sequences, normalized for neuronal βIII-tubulin, as previously described (Yeo et al., 2009, J Neurosci 29:14652-14662). For cultured neurons, total RNA was extracted from pelleted cells, and for spinal cord tissue it was extracted from microdissected lumbar spinal cord dorsal horn.

[2] = system: KCC2 mRNA; assay: Secondary screen: KCC2 RT-qPCR in primary mouse neurons; details: Natural Compounds; rank score
Description: (§2) The primary screen encompassed three levels of LUC measurements. The first level of screening yielded a total of 137 compounds with cut-off RLU>125% LUC activity. These 137 compounds were subject to second round of screening, which was carried out in duplicate independent assays to yield the top 103 compounds sorted for highest RLU. The 103 compounds were then subjected to a third round of screening carried out in duplicate independent assays to yield the top 40 compounds which were again ranked. The best 22 of these 40 compounds (ranked for highest RLU activity) were subjected to secondary screening: Cultured neurons were treated with the 22 compounds; RT-qPCR and Clomeleon imaging methodologies (Yeo et al., 2009, J Neurosci 29:14652-14662) were used to determine effects of compounds on KCC2 mRNA expression and [Cl—]i, respectively. Each compound was ranked based on composite scores from primary and secondary screening.
as §1, with “gene.” for “gene. oligodT-initiated reverse transcription of 1 μg total RNA, DNA-se treated, was subjected to RT-qPCR using primers specific for KCC2 for rat and KCC2 for human sequences, normalized for neuronal βIII-tubulin, as previously described (Yeo et al., 2009, J Neurosci 29:14652-14662). For cultured neurons, total RNA was extracted from pelleted cells, and for spinal cord tissue it was extracted from microdissected lumbar spinal cord dorsal horn.”
oligodT-initiated reverse transcription of 1 μg total RNA, DNA-se treated, was subjected to RT-qPCR using primers specific for KCC2 for rat and KCC2 for human sequences, normalized for neuronal βIII-tubulin, as previously described (Yeo et al., 2009, J Neurosci 29:14652-14662). For cultured neurons, total RNA was extracted from pelleted cells, and for spinal cord tissue it was extracted from microdissected lumbar spinal cord dorsal horn.
(§3) To identify KCC2 gene expression enhancing compounds, cultured primary cortical neurons were cultured from KCC2-luciferase(LUC)-knockin (KCC2-LUCki) mice (Liedtke et al., 2013, Small 9:1066-1075; Yeo et al., 2013, Proc Natl Acad Sci USA 110:4315-4320) and used LUC metrics as readout for activity of the proximal KCC2 promoter (2.5 kB (Yeo et al., 2009, J Neurosci 29:14652-14662)), which drives LUC in this mouse transgenic line. A Z′ factor of 0.94 was obtained. This strategy will not select for long-range enhancers of KCC2 gene expression that act outside the 2.5 kB core KCC2 promoter. 1057 compounds, contained in two NCI libraries (FIG. 1), related to inhibition of growth of malignantly transformed cells were screened. Iterative screening followed by measurements of KCC2 mRNA (RT-qPCR) and intracellular chloride ([Cl—]i), using clomeleon chloride indicator protein (Kuner and Augustine, 2000, Neuron 27:447-459; Yeo et al., 2009, J Neurosci 29:14652-14662), led to decreasing numbers of confirmed and re-confirmed hits, and 4 “winner” compounds were selected (FIG. 1 and Table 3).

[3] = system: synaptophysin; assay: Immuno-cytochemistry morphometry of primary human cortical neurons, synaptophysin; details: 400 nM KP
Description: The neuron-enriched cultures were established from fetal cortical specimens at 15-20 weeks of gestation. The protocols for tissue processing complied with all federal and institutional guidelines. The cultures were plated on PEI (polyethyleneimine solution) substrate and maintained in Neurobasal media supplemented with B27 as previously described (Pelsman et al., 2003, International journal of developmental neuroscience 21:117-124; Yeo et al., 2013, Proc Natl Acad Sci USA 110:4315-4320).
For immunostaining, the cultures were treated for 2-4 days with vehicle or 400 nM KP, fixed with 4% PFA at day 10, and processed for double-staining with anti-KCC2 and anti-synaptophysin or anti-NeuN (see Table 1).
The 0.34 micrometer confocal slices through entire cell layers at different optical fields (n=17-28 for each group) of the fixated cultures were acquired using a Zeiss LSM700 confocal microscope.
Image Z-stacks were analyzed using Imaris 9.2.1 software. Optical density intensity sum values for each stack/channel were divided by corresponding data volumes and the resulting values were normalized to the number of specifically labeled cells within each stack. There were no significant differences in the number of cells between vehicle and KP-treated groups.

[4] = system: intracellular chloride ([Cl—]i); assay: Secondary screen: Clomeleon chloride imaging in primary mouse neurons; design: chloride reduction (%): concentration or dose not given beside the values
Description: as §2
Chloride imaging of primary cultured cortical neurons was conducted as previously described (Kuner and Augustine, 2000, Neuron 27:447-459; Liedtke et al., 2013, Small 9:1066-1075; Yeo et al., 2009, J Neurosci 29:14652-14662). A Clomeleon expression plasmid was transfected into primary cortical neurons by electroporation (Amaxa Nucleofector Device). Transfected neurons were verified by yellow fluorescent protein (YFP) fluorescence, and ratiometric images (excitation at λ=434 nm, dual emission at λ=485 and 535 nm; for resting chloride, six stable frames at […] were captured, which were averaged) were acquired using RATIOTOOL program. Calibration of Clomeleon signals (535 nm/485 nm emission ratio) was performed by using tributyltin-nigericin to establish a standard curve, which was then normalized for measured intraneuronal pH to take into account the pH sensitivity of Clomeleon.
as §3

Structure (SMILES): O=C1Cc2c([nH]c3ccc(Br)cc23)-c2ccccc2N1 [kenpaullone, 9-bromo-7,12-dihydro-indolo [3,2-d] [1]benzazepin-6(5H)-one]
- KCC2 mRNA expression [1]: dose-dependent increase
- RT-QPCR Score (triplicates) [2]: 2
- increased synaptophysin expression relative to vehicle [3]: 54%
- Clomeleon Score (duplicates) ([4]; Natural Compounds, rank score): 2
- chloride reduction (%) ([4]; from the [Cl—]i pair of the same line): 33.8%
- chloride [Cl—]i mM ([4]; value after compound, control => treated): 68 => 23 mM
